Results taken from US9212182B2, “Bicyclic sulfonamide compounds as sodium channel inhibitors” (AMGEN INC., priority 2013, dated 2015).
Read-outs that look alike come from different tables or passages of the source.

Biological target: Nav 1.7 (Homo sapiens (Human), UniProt Q15858)
Test: in-vitro Nav 1.7 PX (IC50)
Assay type: cell-based

Chain of Nav 1.7 (Q15858 whole entry): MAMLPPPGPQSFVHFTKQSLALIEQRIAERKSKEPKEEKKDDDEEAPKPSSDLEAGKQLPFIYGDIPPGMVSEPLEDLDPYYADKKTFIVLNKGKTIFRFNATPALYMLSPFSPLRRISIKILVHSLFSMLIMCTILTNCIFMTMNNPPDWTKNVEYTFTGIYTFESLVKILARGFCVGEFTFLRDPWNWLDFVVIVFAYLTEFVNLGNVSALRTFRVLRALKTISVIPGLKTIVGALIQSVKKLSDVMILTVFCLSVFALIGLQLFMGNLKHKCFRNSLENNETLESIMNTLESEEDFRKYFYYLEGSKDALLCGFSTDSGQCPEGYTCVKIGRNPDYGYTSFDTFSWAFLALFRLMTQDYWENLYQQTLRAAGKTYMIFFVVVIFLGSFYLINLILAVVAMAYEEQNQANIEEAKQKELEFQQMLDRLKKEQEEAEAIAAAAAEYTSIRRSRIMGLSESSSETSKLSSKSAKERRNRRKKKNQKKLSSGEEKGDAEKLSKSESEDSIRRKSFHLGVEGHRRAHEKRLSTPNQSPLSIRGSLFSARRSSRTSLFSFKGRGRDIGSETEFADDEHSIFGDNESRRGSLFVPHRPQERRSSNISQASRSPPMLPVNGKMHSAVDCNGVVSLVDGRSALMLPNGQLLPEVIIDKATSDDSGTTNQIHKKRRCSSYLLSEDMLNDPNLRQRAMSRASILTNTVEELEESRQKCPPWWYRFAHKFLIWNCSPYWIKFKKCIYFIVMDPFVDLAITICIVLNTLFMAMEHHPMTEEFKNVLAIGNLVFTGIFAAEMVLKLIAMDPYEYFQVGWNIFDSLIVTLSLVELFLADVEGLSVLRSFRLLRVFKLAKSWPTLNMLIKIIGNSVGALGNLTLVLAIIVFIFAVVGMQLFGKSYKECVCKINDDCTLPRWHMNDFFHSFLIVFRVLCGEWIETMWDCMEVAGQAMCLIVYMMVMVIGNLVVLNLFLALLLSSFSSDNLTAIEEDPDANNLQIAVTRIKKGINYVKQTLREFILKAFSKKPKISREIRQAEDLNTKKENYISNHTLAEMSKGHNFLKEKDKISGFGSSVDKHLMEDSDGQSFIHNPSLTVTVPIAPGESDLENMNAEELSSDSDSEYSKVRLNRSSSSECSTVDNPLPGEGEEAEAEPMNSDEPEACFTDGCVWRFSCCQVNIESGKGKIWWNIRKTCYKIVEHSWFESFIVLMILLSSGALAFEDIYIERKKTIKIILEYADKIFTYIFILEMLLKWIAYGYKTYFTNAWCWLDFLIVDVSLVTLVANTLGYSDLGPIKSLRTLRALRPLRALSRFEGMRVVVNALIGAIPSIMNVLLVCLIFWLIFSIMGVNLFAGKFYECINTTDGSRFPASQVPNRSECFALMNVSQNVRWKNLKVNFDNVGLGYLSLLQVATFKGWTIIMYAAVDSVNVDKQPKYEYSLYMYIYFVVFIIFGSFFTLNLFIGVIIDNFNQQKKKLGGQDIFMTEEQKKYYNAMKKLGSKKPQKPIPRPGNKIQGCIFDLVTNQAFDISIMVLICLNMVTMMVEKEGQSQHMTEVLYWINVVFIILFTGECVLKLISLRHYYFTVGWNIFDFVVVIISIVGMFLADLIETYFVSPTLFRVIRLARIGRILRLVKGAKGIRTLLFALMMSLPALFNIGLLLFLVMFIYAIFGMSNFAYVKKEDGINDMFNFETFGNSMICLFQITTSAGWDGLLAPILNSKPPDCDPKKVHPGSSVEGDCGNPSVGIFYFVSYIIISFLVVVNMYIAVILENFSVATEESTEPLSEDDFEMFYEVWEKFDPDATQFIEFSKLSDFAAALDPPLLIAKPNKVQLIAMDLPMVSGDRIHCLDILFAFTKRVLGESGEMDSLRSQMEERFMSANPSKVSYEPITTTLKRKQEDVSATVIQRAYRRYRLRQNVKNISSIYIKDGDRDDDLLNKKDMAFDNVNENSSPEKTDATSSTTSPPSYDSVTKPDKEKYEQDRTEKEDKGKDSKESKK

Row | Compound | IC50 (in-vitro PatchXpress (PX)) [nM] | IC50 [nM] | also measured
1 | COc1cc(-c2cc(F)c(F)cc2F)c(F)cc1-n1c(=O)ccc2cc(S(=O)(=O)Nc3ccon3)ccc21 (atropisomer, axis not shown; (M)) [Example 517, (M)-N-3-isoxazolyl-2-oxo-1-(2,2′,4′,5′-tetrafluoro-5-methoxy-4-biphenylyl)-1,2-dihydro-6-quinolinesulfonamide] | 21 | – | –
2 | COc1cc(-c2ccc(C#N)c(Cl)c2)c(F)cc1-n1c(=O)ccc2cc(S(=O)(=O)Nc3ccon3)ccc21 (atropisomer, axis not shown; (M)) [Example 521, (M)-1-(3′-chloro-4′-cyano-2-fluoro-5-methoxy-4-biphenylyl)-N-3-isoxazolyl-2-oxo-1,2-dihydro-6-quinolinesulfonamide] | > 10000 | – | –
3 | COc1cc(-c2cccc(C(F)(F)F)c2)c(Cl)cc1-n1c(=O)ccc2cc(S(=O)(=O)Nc3ccon3)ccc21 (atropisomer, axis not shown; (M)) [Example 534, (M)-1-(2-chloro-5-methoxy-3′-(trifluoromethyl)-[1,1′-biphenyl]-4-yl)-N-(isoxazol-3-yl)-2-oxo-1,2-dihydroquinoline-6-sulfonamide] | – | 1350 | –
4 | COc1cc(-c2cc(C)cc(Cl)c2)ccc1-n1c(=O)ccc2cc(S(=O)(=O)Nc3ccon3)ccc21 (atropisomer, axis not shown; (M)) [Example 586, (M)-1-(3′-chloro-3-methoxy-5′-methyl-4-biphenylyl)-N-3-isoxazolyl-2-oxo-1,2-dihydro-6-quinolinesulfonamide] | – | > 1000 | –
5 | COc1cc(Cl)c(-c2cccc(F)c2)cc1-n1c(=O)ccc2cc(S(=O)(=O)Nc3ccon3)ccc21 (atropisomer, axis not shown; (M)) [Example 609, (M)-1-(6-chloro-3′-fluoro-4-methoxy-3-biphenylyl)-N-3-isoxazolyl-2-oxo-1,2-dihydro-6-quinolinesulfonamide] | – | – | IC50 (in-vitro Nav 1.7 PX data): 10100 nM
6 | COc1ccc(-c2cc(F)cc(Cl)c2)cc1-n1c(=O)ccc2cc(S(=O)(=O)Nc3ccncn3)ccc21 (atropisomer, axis not shown; (M)) [Example 612, (M)-1-(3′-chloro-5′-fluoro-4-methoxy-3-biphenylyl)-2-oxo-N-4-pyrimidinyl-1,2-dihydro-6-quinolinesulfonamide] | – | – | IC50 (in-vitro Nav 1.7 PX data): 355 nM
7 | COc1cc(Cl)c(-c2cc(F)cc(Cl)c2)cc1-n1c(=O)ccc2cc(S(=O)(=O)Nc3ccon3)ccc21 (atropisomer, axis not shown; (M)) [Example 615, (M)-1-(3′,6-dichloro-5′-fluoro-4-methoxy-3-biphenylyl)-N-3-isoxazolyl-2-oxo-1,2-dihydro-6-quinolinesulfonamide] | – | – | IC50 (in-vitro Nav 1.7 PX data): 10800 nM
8 | Cc1cc(-c2cc(C)c(-n3c(=O)ccc4cc(S(=O)(=O)Nc5ncccn5)ccc43)cc2F)ccc1Cl (atropisomer, axis not shown; (M)) [Example 650, (M)-1-(4′-chloro-2-fluoro-3′,5-dimethyl-4-biphenylyl)-2-oxo-N-2-pyrimidinyl-1,2-dihydro-6-quinolinesulfonamide] | – | – | IC50 (in-vitro Nav 1.7 PX data): 3800 nM
9 | COc1nc(-c2cc(F)cc(F)c2)c(Cl)cc1-n1c(=O)ccc2cc(S(=O)(=O)Nc3ccon3)ccc21 (atropisomer, axis not shown; (M)) [Example 666, (M)-1-(5-chloro-6-(3,5-difluorophenyl)-2-methoxy-3-pyridinyl)-N-3-isoxazolyl-2-oxo-1,2-dihydro-6-quinolinesulfonamide] | – | – | IC50 (in-vitro Nav 1.7 PX data): 1060 nM
10 | COc1nc(C2CC2)c(Cl)cc1-n1c(=O)ccc2cc(S(=O)(=O)Nc3ccon3)ccc21 (atropisomer, axis not shown; (M)) [Example 1229, (M)-1-(5-chloro-6-cyclopropyl-2-methoxy-3-pyridinyl)-N-3-isoxazolyl-2-oxo-1,2-dihydro-6-quinolinesulfonamide] | – | 17200 | –
11 | COc1cc(-c2cccc(Cl)c2)c(C)cc1-n1c(=O)ccc2cc(S(=O)(=O)Nc3ncccn3)ccc21 (atropisomer, axis not shown; (P)) [Example 321, (P)-1-(3′-chloro-5-methoxy-2-methyl-4-biphenylyl)-2-oxo-N-2-pyrimidinyl-1,2-dihydro-6-quinolinesulfonamide] | – | 10 | –
12 | COc1cc(-c2cccc(F)c2)c(Cl)cc1-n1c(=O)ccc2cc(S(=O)(=O)Nc3ncccn3)ccc21 (atropisomer, axis not shown; (P)) [Example 355, (P)-1-(2-chloro-3′-fluoro-5-methoxy-[1,1′-biphenyl]-4-yl)-2-oxo-N-(pyrimidin-2-yl)-1,2-dihydroquinoline-6-sulfonamide] | – | 31 | –
13 | COc1cc(-c2cccc(F)c2)c(Cl)cc1-n1c(=O)ccc2cc(S(=O)(=O)Nc3ccon3)c(F)cc21 (atropisomer, axis not shown; (P)) [Example 358, (P)-1-(2-chloro-3′-fluoro-5-methoxy-[1,1′-biphenyl]-4-yl)-7-fluoro-N-(isoxazol-3-yl)-2-oxo-1,2-dihydroquinoline-6-sulfonamide] | – | 4660 | –
14 | COc1cc(-c2ccc(F)c(Cl)c2)c(F)cc1-n1c(=O)ccc2cc(S(=O)(=O)Nc3ccon3)ccc21 (atropisomer, axis not shown; (P)) [Example 365, (P)-1-(3′-chloro-2,4′-difluoro-5-methoxy-4-biphenylyl)-N-3-isoxazolyl-2-oxo-1,2-dihydro-6-quinolinesulfonamide] | 9 | – | –

Now from value to molecule, other results behind:

Row | IC50 (in-vitro PatchXpress (PX)) [nM] | IC50 [nM] | Compound | also measured
15 | 16 | – | COc1cc(-c2cc(Cl)cc(C#N)c2)c(F)cc1-n1c(=O)ccc2cc(S(=O)(=O)Nc3ccon3)ccc21 (atropisomer, axis not shown; (M)) [Example 519, (M)-1-(3′-chloro-5′-cyano-2-fluoro-5-methoxy-4-biphenylyl)-N-3-isoxazolyl-2-oxo-1,2-dihydro-6-quinolinesulfonamide] | –
16 | 4740 | – | COc1cc(-c2cccc(C)c2)c(F)cc1-n1c(=O)ccc2cc(S(=O)(=O)Nc3ccon3)ccc21 (atropisomer, axis not shown; (M)) [Example 523, (M)-1-(2-fluoro-5-methoxy-3′-methyl-4-biphenylyl)-N-3-isoxazolyl-2-oxo-1,2-dihydro-6-quinolinesulfonamide] | –
17 | 4840 | – | COc1cc(-c2ccc(C)c(C#N)c2)c(F)cc1-n1c(=O)ccc2cc(S(=O)(=O)Nc3ccon3)ccc21 (atropisomer, axis not shown; (M)) [Example 525, (M)-1-(3′-cyano-2-fluoro-5-methoxy-4′-methyl-4-biphenylyl)-N-3-isoxazolyl-2-oxo-1,2-dihydro-6-quinolinesulfonamide] | –
18 | 3150 | – | COc1cc(-c2ccc(C)c(Cl)c2)c(F)cc1-n1c(=O)ccc2cc(S(=O)(=O)Nc3ccon3)ccc21 (atropisomer, axis not shown; (M)) [Example 529, (M)-1-(3′-chloro-2-fluoro-5-methoxy-4′-methyl-4-biphenylyl)-N-3-isoxazolyl-2-oxo-1,2-dihydro-6-quinolinesulfonamide] | –
19 | – | 7140 | COc1cc(-c2ccc(F)c(Cl)c2)ccc1-n1c(=O)ccc2cc(S(=O)(=O)Nc3ccon3)ccc21 (atropisomer, axis not shown; (M)) [Example 577, (M)-1-(3′-chloro-4′-fluoro-3-methoxy-4-biphenylyl)-N-3-isoxazolyl-2-oxo-1,2-dihydro-6-quinolinesulfonamide] | –
20 | – | 4310 | COc1cc(-c2ccc(Cl)c(F)c2)ccc1-n1c(=O)ccc2cc(S(=O)(=O)Nc3ccon3)ccc21 (atropisomer, axis not shown; (M)) [Example 579, (M)-1-(4′-chloro-3′-fluoro-3-methoxy-4-biphenylyl)-N-3-isoxazolyl-2-oxo-1,2-dihydro-6-quinolinesulfonamide] | –
21 | – | > 10000 | COc1cc(-c2cccc(C)c2)ccc1-n1c(=O)ccc2cc(S(=O)(=O)Nc3ccon3)ccc21 (atropisomer, axis not shown; (M)) [Example 583, (M)-N-3-isoxazolyl-1-(3-methoxy-3′-methyl-4-biphenylyl)-2-oxo-1,2-dihydro-6-quinolinesulfonamide] | –
22 | – | 1020 | COc1cc(-c2ccc(C)c(Cl)c2)ccc1-n1c(=O)ccc2cc(S(=O)(=O)Nc3ccon3)ccc21 (atropisomer, axis not shown; (M)) [Example 588, (M)-1-(3′-chloro-3-methoxy-4′-methyl-4-biphenylyl)-N-3-isoxazolyl-2-oxo-1,2-dihydro-6-quinolinesulfonamide] | –
23 | – | 141 | COc1cc(-c2cccc(Cl)c2)cc(F)c1-n1c(=O)ccc2cc(S(=O)(=O)Nc3ccon3)ccc21 (atropisomer, axis not shown; (P)) [Example 320, (P)-1-(3′-chloro-3-fluoro-5-methoxy-4-biphenylyl)-N-3-isoxazolyl-2-oxo-1,2-dihydro-6-quinolinesulfonamide] | –
24 | – | 5 | COc1cc(-c2cc(F)cc(Cl)c2)c(F)cc1-n1c(=O)ccc2cc(S(=O)(=O)Nc3ncon3)ccc21 (atropisomer, axis not shown; (P)) [Example 326, (P)-1-(3′-chloro-2,5′-difluoro-5-methoxy-4-biphenylyl)-N-1,2,4-oxadiazol-3-yl-2-oxo-1,2-dihydro-6-quinolinesulfonamide] | –
25 | 3 | – | COc1cc(-c2ccc(Cl)c(C)c2)c(Cl)cc1-n1c(=O)ccc2cc(S(=O)(=O)Nc3ccncn3)ccc21 (atropisomer, axis not shown; (P)) [Example 367, (P)-1-(2,4′-dichloro-5-methoxy-3′-methyl-4-biphenylyl)-2-oxo-N-4-pyrimidinyl-1,2-dihydro-6-quinolinesulfonamide] | –
26 | 16 | – | COc1cc(-c2cccc(C(F)(F)F)c2)ccc1-n1c(=O)ccc2cc(S(=O)(=O)Nc3cccnn3)ccc21 (atropisomer, axis not shown; (P)) [Example 369, (P)-1-(3-methoxy-3′-(trifluoromethyl)-4-biphenylyl)-2-oxo-N-3-pyridazinyl-1,2-dihydro-6-quinolinesulfonamide] | –
27 | 4360 | – | COc1cc(-c2ccc(Cl)c(C)c2)ccc1-n1c(=O)ccc2cc(S(=O)(=O)Nc3cccnn3)ccc21 (atropisomer, axis not shown; (P)) [Example 371, (P)-1-(4′-chloro-3-methoxy-3′-methyl-4-biphenylyl)-2-oxo-N-3-pyridazinyl-1,2-dihydro-6-quinolinesulfonamide] | –
